# Measured values taken from paper PMC5046141, “Discovery of Isoquinolinoquinazolinones as a Novel Class of Potent PPARγ Antagonists with Anti-adipogenic Effects” (Scientific Reports, 2016).
# Columns and labels:
# [1] = tested on: 3T3-L1 cells; assay: Expression of adipogenesis markers (immunoblotting, RT-PCR) in MDI-differentiated 3T3-L1 cells; type: cell-based, mouse; conditions: after MDI-induced differentiation
# Procedure: PPARγ alone or together with CCAAT-enhancer-binding protein α (C/EBPα) regulates many adipocyte genes that are involved in creating and maintaining the adipocyte phenotype. To further analyze the effect of isoquinolinoquinazolinones on adipogenesis, the expression of the adipocyte marker genes (C/EBPα and PPARγ) was analyzed. The differentiation of 3T3-L1 cells into adipocytes was induced by incubating in MDI induction medium for 2 days followed by incubation in differentiation medium for an additional 6 days. After MDI-induced adipocyte differentiation of 3T3-L1 cells, adipogenic transcriptional factors were analyzed. The transcriptional factors C/EBPα and PPARγ were inhibited by 8n and 8o in terms of both protein (Fig. 2C,D) and RNA (Fig. 2E,F) levels.
# Total cellular RNA was prepared using TRIzol reagent (Life Technologies) according to the manufacturer’s instructions. Random-primed cDNAs were synthesized from 1 μg of total RNA using Super-Script III First-Strand Synthesis System (Life Technologies). The following conditions were used for PCR: initial denaturation at 94 °C for 1 min; 28–30 cycles of denaturation at 94 °C for 30 s, annealing at a temperature optimized for each primer pair for 30 s, extension at 72 °C for 30 s; final extension at 72 °C for 5 min. […] RNA levels were quantified by image software, Multi Gauge, V3.0 (FUJIFILM).
# At the end of differentiation, 3T3-L1 cells were washed with PBS and lysed in a lysis buffer (1% NP-40, 25 mM HEPES (pH 7.5), 10% glycerol, 150 mM NaCl, 25 mM NaF, 0.25% sodium deoxycholate, 1 mM EDTA, 1 mM Na3VO4, 10 μg/mL aprotinin, 10 μg/mL leupeptin, and 250 μM phenylmethanesulfonyl fluoride). […] Horseradish peroxidase-labeled secondary antibodies were detected and visualized using chemiluminescent western blotting reagent (Millipore). Protein expression levels were quantified by image software, Multi Gauge, V3.0 (FUJIFILM).
# [2] = molecular target: T1, R288G mutant PPARγ2 (Mus musculus, UniProt P37238, R316G); assay: PPRE-Luc reporter assay with R288G mutant PPARγ2 in 3T3-L1 cells; conditions: 5 μM, 12 h
# T1 sequence (P37238 1-505 R316G): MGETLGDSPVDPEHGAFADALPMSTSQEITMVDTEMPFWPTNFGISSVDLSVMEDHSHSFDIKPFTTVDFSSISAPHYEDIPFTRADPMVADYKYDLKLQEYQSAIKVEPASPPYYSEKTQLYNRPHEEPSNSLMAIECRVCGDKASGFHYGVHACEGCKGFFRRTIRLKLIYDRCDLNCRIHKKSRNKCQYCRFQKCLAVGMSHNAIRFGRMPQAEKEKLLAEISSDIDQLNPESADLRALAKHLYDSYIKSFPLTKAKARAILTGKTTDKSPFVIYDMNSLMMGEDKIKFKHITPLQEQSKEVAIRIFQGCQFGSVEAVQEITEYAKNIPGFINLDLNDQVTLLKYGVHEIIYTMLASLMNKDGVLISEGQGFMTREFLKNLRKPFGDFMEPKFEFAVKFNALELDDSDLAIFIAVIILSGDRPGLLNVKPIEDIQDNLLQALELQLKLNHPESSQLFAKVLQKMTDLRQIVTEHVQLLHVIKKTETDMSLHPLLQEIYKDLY
# T1 sequence (P28700 1-467 partner): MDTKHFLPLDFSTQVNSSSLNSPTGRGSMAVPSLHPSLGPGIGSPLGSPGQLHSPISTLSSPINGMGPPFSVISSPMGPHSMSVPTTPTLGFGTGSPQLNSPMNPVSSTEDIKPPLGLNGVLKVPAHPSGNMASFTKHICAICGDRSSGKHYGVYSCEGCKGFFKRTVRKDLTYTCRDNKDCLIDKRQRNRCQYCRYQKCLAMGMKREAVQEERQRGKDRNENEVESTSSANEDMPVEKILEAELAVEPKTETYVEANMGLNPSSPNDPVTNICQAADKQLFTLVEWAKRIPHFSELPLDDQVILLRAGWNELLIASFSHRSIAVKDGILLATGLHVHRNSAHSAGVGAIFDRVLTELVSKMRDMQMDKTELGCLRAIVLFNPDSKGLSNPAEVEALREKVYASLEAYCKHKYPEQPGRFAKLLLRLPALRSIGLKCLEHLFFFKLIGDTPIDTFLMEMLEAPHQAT
effect of Arg288 to Gly substitution on the compound's inhibition of PPARγ2 activity [2],SMILES,"C/EBPα and PPARγ expression, protein and RNA levels [1]",mRNA expression of adiponectin and fatty acid synthase (FAS) [1]
–,"COc1cc2cc3n(c(=O)c2cc1OC)CNc1ccc(Cl)cc1-3 [Compound 8n, 2-Chloro-10,11-dimethoxy-5H-isoquinolino[2,3-c]quinazolin-8(6H)-one]",inhibited,–
abolished the inhibitory effect,"COc1cc2cc3n(c(=O)c2cc1OC)CNc1cc(Cl)ccc1-3 [Compound 8o, 3-Chloro-10,11-dimethoxy-5H-isoquinolino[2,3-c]quinazolin-8(6H)-one]",inhibited,strongly reduced
